Test results reported in ChEMBL document CHEMBL1201862, “PubChem BioAssay data set” (2004).
Active and inactive are the calls of the source.

Molecular target: T1, Protein skinhead-1 (Caenorhabditis elegans, UniProt P34707)
T1 sequence (P34707 whole entry): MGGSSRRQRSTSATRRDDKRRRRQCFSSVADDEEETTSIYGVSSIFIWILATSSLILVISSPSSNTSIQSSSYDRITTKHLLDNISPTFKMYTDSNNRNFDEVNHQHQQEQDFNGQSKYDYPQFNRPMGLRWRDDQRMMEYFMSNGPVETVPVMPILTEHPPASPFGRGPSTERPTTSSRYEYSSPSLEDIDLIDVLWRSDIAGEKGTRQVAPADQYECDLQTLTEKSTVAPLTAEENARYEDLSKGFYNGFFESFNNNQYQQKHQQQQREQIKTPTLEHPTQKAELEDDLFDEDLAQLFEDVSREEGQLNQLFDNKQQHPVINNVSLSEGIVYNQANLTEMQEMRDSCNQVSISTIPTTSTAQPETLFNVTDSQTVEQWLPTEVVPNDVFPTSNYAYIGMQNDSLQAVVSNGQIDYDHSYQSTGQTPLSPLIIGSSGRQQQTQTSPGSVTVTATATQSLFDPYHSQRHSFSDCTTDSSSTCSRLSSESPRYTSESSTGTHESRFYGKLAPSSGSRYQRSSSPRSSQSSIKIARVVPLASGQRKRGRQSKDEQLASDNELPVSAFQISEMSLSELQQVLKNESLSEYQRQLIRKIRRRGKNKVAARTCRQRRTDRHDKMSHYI
Experiment: not given
Assay type: functional
Details: not given

Row | SMILES | IC50
1 | O=C(CN1C(=O)NC2(CCCC2)C1=O)Nc1cc(S(=O)(=O)N2CCOCC2)ccc1OCC(F)(F)F | > 100 µM (inactive)
2 | CCN1CCN(c2ncnc3c2c(-c2ccccc2)cn3-c2ccc(F)cc2)CC1 | 12.6 µM (active)
3 | Fc1ccc(-c2nc(-c3cccs3)no2)cc1 | > 100 µM (inactive)
4 | COc1ccc(CN2CCN(Cc3ccco3)CC2)cc1 | > 100 µM (inactive)
5 | COc1cc(CCC(=O)OCC(=O)Nc2ccc(F)cc2F)cc(OC)c1OC | > 100 µM (inactive)
6 | Cc1cnc(C(=O)N(CCCn2ccnc2)C2C(=O)Nc3ccccc3N=C2c2ccccc2)cn1 (stereo unspecified) | > 100 µM (inactive)
7 | Cc1ccccc1-c1nc(C[S+]([O-])CC(=O)NCc2ccc3c(c2)OCO3)c(C)o1 (stereo unspecified) | > 100 µM (inactive)
8 | c1csc(-c2cn3ccc4ccccc4c3n2)c1 | 33.6 µM (active)

Molecular target: Large T antigen (Simian virus 40, UniProt P03070);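 also: Confirmatory-stage PubChem screen for compounds that inhibit SV40 T antigen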
Sequence (P03070 whole entry): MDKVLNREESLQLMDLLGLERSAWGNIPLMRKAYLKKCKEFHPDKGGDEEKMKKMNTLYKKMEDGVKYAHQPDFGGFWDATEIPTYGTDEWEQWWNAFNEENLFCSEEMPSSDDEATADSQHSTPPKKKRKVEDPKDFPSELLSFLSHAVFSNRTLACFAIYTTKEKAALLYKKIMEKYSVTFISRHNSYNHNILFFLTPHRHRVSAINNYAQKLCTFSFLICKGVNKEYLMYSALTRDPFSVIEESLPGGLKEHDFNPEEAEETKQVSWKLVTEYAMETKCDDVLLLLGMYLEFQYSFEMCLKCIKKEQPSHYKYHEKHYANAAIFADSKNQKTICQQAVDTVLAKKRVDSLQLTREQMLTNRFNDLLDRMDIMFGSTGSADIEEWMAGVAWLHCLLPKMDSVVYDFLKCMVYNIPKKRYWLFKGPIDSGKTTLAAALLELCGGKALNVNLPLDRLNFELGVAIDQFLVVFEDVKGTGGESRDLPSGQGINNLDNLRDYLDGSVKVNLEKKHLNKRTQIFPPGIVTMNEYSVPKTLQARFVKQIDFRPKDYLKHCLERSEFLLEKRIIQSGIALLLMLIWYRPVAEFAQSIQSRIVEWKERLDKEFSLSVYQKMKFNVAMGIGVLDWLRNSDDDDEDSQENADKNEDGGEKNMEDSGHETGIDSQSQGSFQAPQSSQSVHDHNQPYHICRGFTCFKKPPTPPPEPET
Experiment: not given
Assay type: functional, Betapolyomavirus macacae
Details: not given

Row | SMILES | IC50
9 | O=C(CCOc1ccccc1)N1CCN(c2ccc(O)cc2)CC1 | 4.19 µM (active)
10 | COc1cc(/C=N/N=C2/C(=O)Nc3ccccc32)ccc1O | 8.73 µM (active)
11 | CCOc1ccc(OCCC(=O)OCC(=O)N2CCN(S(=O)(=O)c3ccc(C)cc3)CC2)cc1 | 11.1 µM (active)
12 | CCOc1cc(/C=C/c2cc(C(F)(F)F)nc(O)n2)ccc1O | 13 µM (active)

Test system: not listed separately
Experiment: Luminescence Cell-Based Dose Confirmation HTS to Identify Activators of 5'UTR Stem-Loop Driven Alpha-Synuclein mRNA Translation in H4 Neuroglioblastoma Cells. [Related pubchem assays: 1829 (Project Summary), 1814 (Primary HTS)]
Assay type: functional
Details: not given

Row | SMILES | EC50
13 | Cc1cc(N2CCOCC2)nc2cc(O)ccc12 | 16.2 µM (active)
14 | COc1ccc(OS(=O)(=O)Cc2ccccc2)cc1 | > 120 µM (not active)
15 | Nc1nc2c(C(=O)N3CCOCC3)nnn2c2ccccc12 | 0.138 µM (active)
16 | Cc1ccc(NC(=O)C2=C(O)c3sccc3N(C)S2(=O)=O)cc1 | 13.2 µM (active)
17 | COc1ccccc1/C=C/C(=O)N1CCC(c2ccccc2)C1 (stereo unspecified) | 9.44 µM (active)
18 | Cc1cc(-n2c(C)cc(C(=O)COc3ccccc3[N+](=O)[O-])c2C)no1 | 13.5 µM (active)
19 | COc1ccc(O)c(C(=O)c2cnn(-c3ccccn3)c2)c1 | 15.4 µM (active)

Test system: not listed separately
Experiment: Luminescence Cell-Based Dose Response HTS to Identify Activators of Luciferase Translation or Activity in H4 […] Cells. [Related pubchem assays: 1829 (Project Summary), 1814 (Primary HTS)]
Assay type: functional
Details: not given

Row | SMILES | EC50
20 | Cc1cc(N2CCOCC2)nc2cc(O)ccc12 | 6.94 µM (active)
21 | COc1ccc(OS(=O)(=O)Cc2ccccc2)cc1 | 10.8 µM (active)
22 | Nc1nc2c(C(=O)N3CCOCC3)nnn2c2ccccc12 | 0.203 µM (active)
23 | Cc1ccc(NC(=O)C2=C(O)c3sccc3N(C)S2(=O)=O)cc1 | 27.2 µM (active)
24 | COc1ccccc1/C=C/C(=O)N1CCC(c2ccccc2)C1 (stereo unspecified) | 27.8 µM (active)
25 | Cc1cc(-n2c(C)cc(C(=O)COc3ccccc3[N+](=O)[O-])c2C)no1 | 44.9 µM (active)
26 | COc1ccc(O)c(C(=O)c2cnn(-c3ccccn3)c2)c1 | 43.5 µM (active)
27 | c1csc(-c2cn3ccc4ccccc4c3n2)c1 | 26 µM (active)

Molecular target: T2, Rac GTPase-activating protein 1 (Homo sapiens, UniProt Q9H0H5)
T2 sequence (Q9H0H5 whole entry): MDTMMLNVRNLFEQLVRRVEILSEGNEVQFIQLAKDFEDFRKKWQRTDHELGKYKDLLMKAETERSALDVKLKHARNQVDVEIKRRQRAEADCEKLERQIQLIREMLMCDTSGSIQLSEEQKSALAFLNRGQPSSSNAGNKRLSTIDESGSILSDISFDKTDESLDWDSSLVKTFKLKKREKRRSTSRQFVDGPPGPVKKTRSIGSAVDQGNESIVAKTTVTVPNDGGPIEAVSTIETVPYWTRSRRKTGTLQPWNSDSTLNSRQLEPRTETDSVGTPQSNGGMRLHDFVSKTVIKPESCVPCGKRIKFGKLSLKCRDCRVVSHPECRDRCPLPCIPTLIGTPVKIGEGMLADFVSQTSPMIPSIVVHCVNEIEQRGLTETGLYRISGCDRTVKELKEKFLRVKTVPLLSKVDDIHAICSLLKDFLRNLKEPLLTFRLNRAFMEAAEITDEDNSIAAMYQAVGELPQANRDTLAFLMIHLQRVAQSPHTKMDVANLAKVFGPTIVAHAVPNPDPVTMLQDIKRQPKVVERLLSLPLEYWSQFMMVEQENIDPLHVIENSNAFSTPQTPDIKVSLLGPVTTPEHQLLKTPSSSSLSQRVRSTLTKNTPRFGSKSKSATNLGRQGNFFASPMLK
Experiment: blockers of MgcRacGAP-driven Rac1 GTP hydrolysis – biochemical, ADP Hunter fluorescence, primary and confirmatory, confirmation (AID 624330)
Assay type: functional
Details: not given

Row | SMILES | IC50
28 | CN(C)S(=O)(=O)c1cccc(NC(=O)CNCC2CCCCC2)c1 | 115 µM (active)
29 | COc1cc(/C=N/NC(=O)CC(=O)NC2CCCCC2)ccc1O | 51.6 µM (active)
30 | C/C(CC(=O)Nc1ccc(N(C)C)cc1)=N\NC(=O)c1ccc(F)cc1 | 47.4 µM (active)
31 | CN(C)S(=O)(=O)c1cc(NC(=O)CNCCN2CCOCC2)ccc1Cl | 154 µM (active)
32 | COc1cc(-c2nc3ccccn3c2/N=C/c2cc(OC)c(O)cc2Cl)ccc1O | 69.7 µM (active)
33 | O=C(Oc1ccc(N(C(=O)c2ccncc2)S(=O)(=O)c2cccs2)cc1)c1ccncc1 | 86 µM (active)

Test system: H4
Experiment: Luminescence Cell-Based Dose Response HTS to Identify Activators of 5'UTR Stem-Loop Driven Prion Protein mRNA Translation in H4 Neuroglioblastoma Cells. [Related pubchem assays: 1829 (Project Summary), 1814 (Primary HTS)]
Assay type: functional
Details: Homo sapiens

Row | SMILES | EC50
34 | Cc1cc(N2CCOCC2)nc2cc(O)ccc12 | > 120 µM (not active)
35 | COc1ccc(OS(=O)(=O)Cc2ccccc2)cc1 | 57.5 µM (active)
36 | Nc1nc2c(C(=O)N3CCOCC3)nnn2c2ccccc12 | 26.9 µM (active)
37 | Cc1ccc(NC(=O)C2=C(O)c3sccc3N(C)S2(=O)=O)cc1 | > 120 µM (not active)
38 | COc1ccccc1/C=C/C(=O)N1CCC(c2ccccc2)C1 (stereo unspecified) | 23.1 µM (active)
39 | Cc1cc(-n2c(C)cc(C(=O)COc3ccccc3[N+](=O)[O-])c2C)no1 | > 120 µM (not active)
40 | COc1ccc(O)c(C(=O)c2cnn(-c3ccccn3)c2)c1 | 9.17 µM (active)
41 | c1csc(-c2cn3ccc4ccccc4c3n2)c1 | 0.106 µM (active)

Molecular target: Cytochrome P450 2C19 (Homo sapiens, UniProt P33261)
Sequence (P33261 whole entry): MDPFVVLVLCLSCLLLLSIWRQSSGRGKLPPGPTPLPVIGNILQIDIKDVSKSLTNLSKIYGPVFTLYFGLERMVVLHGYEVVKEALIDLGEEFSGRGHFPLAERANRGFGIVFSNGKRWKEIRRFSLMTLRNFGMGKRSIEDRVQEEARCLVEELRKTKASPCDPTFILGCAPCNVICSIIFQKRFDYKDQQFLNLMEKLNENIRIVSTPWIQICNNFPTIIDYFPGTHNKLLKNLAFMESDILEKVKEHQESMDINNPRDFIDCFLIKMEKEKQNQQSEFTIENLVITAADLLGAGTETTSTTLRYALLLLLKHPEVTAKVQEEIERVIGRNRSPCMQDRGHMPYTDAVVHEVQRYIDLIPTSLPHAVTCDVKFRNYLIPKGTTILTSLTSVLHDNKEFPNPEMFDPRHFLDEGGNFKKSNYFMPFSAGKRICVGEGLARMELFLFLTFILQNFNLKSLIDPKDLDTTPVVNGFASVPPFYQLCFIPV
Experiment: Cytochrome panel assay with activity outcomes. Panel member name: p450-cyp2c19 Compounds with AC50 equal or less than 10 uM are considered active
Assay type: functional
Details: read-out: AC50

Row | SMILES | AC50
42 | Cc1oc(=O)c(NC(=O)c2ccccc2)cc1C(=O)c1ccccc1 | 8.91 µM (inconclusive)

Test system: not listed separately
Experiment: Luminescence Cell-Based Dose Retest to Confirm Inhibitors of Cancer Stem Cells. [Related pubchem assays (depositor defined):AID2717, AID2721]
Assay type: functional
Details: Homo sapiens

Row | SMILES | AC50
43 | O=C(CCOc1ccccc1)N1CCN(c2ccc(O)cc2)CC1 | 11.3 µM (active)

Test system: not listed separately
Experiment: microbe, parasite or virus in culture
Assay type: functional
Details: Mycobacterium tuberculosis

Row | SMILES | CC50
44 | Cc1cc(C)n2nc(/C(C#N)=C/c3ccccn3)c(C#N)c2n1 | > 40 µM (active)
45 | CC(C)(C)c1ccc(-c2nc3nc(O)cc(NC(=O)c4ccco4)n3n2)cc1 | > 40 µM (active)
46 | OC(CN1CCN(c2ccccn2)CC1)Cn1c2ccccc2c2ccccc21 (stereo unspecified) | > 40 µM (active)
47 | Cc1ccc2nc3c(cc(C(=O)NCc4ccco4)c(=N)n3Cc3ccco3)c(=O)n2c1 | 23.8 µM (active)
48 | O=c1c(-c2cnn(-c3ccccc3)c2)coc2cc(O)ccc12 | > 40 µM (active)
49 | O=C(c1ccccc1)c1ccc(OCCOCCN2CCN(Cc3ccccc3)CC2)cc1 | > 40 µM (active)

Test system: not listed separately
Experiment: cells
Assay type: functional
Details: not given

Row | SMILES | IC50
50 | Cc1oc(=O)c(NC(=O)c2ccccc2)cc1C(=O)c1ccccc1 | > 50 µM (active)

Molecular target: FAD-linked sulfhydryl oxidase ALR (Homo sapiens, UniProt P55789)
Sequence (P55789 whole entry): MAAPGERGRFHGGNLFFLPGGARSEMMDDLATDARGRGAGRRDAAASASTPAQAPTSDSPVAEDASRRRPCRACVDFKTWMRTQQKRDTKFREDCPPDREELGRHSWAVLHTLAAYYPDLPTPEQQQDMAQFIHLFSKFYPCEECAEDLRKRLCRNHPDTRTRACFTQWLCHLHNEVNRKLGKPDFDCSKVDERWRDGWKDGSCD
Experiment: ALR-catalysed DTT oxidation blockers – biochemical, H2O2 detection, luminescence, cherry-pick, dose response (AID 493248)
Details: not given

Row | SMILES | AC50
51 | COc1cc(/C=N/NC(=O)CC(=O)NC2CCCCC2)ccc1O | 0.175 µM (active)
